Laboratory results as given in publication PMC11561238, “Discovery and binding mode of small molecule inhibitors of the apo form of human TDO2” (Scientific Reports, 2024).
Values joined by “and” are separate entries in the source; they are usually repeats but may differ in a detail not shown here. Equal values may be shown once. “Also recorded” adds a separate entry of the source. Read-outs that look alike come from different tables or passages of the source.

Key:
[1] = tested on: SW48 cells; assay: SW48 cell viability assay (CellTiter-Glo); format: cell-based; conditions: Homo sapiens
Method: The inhibitor compound 1 (Cpd-1) (IUPAC name ethyl 9-(3-(2-propylphenyl)-1-(1-phenylethyl)ureido)-2-methoxy-4-oxo-6,7,8,9-tetrahydro-4H-pyrido[1,2-a]pyrimidine-3-carboxylate) was identified as a hit in a high throughput screening campaign of a diverse set of 244,625 compounds in a human TDO2 cellular assay utilizing SW48 cells, which express a high level of endogenous TDO2. TDO2 activity was assessed by measuring the accumulation of the TDO2 product NFK and downstream product KYN in the supernatant. The potent inhibitor compound 2 (Cpd-2) (IUPAC name ethyl 9-(3-(2-isopropylphenyl)-1-((S)-1-phenylethyl)ureido)-2-methoxy-4-oxo-6,7,8,9-tetrahydro-4H-pyrido[1,2-a]pyrimidine-3-carboxylate) was identified during initial structure activity relationship studies of Cpd-1 analogs.
As inhibition of NFK and KYN production can simply be an effect of cytotoxicity, a viability assay (CellTiter-Glo 2.0 Luminescent Cell Viability Assay, Promega Catalog # G9243) was performed in parallel. CellTiter-Glo reagent was added (25 µl/well) to SW48 cell plates, incubated for 15 min at room temperature in the dark and luminescence was measured with the EnVision Multilabel Reader from Perkin Elmer according to the manufacturer’s instructions. […] For each compound concentration the percentage of activity compared to 0% and 100% effect was calculated as average ± STDEV (each concentration measured in duplicate). […]

[2] = biological target: T1, apo-TDO2 (Homo sapiens, UniProt P48775); assay: Differential scanning fluorimetry (thermal shift) of apo-TDO2; format: binding; conditions: for Δ Tm Boltzmann / Δ Tm Derivative: 25 µM; for Δ Tm Boltzmann / Δ Tm Derivative / Tm Boltzmann / Tm Derivative: in °C
T1 construct: a longer construct (His6-aa19-406, with aa406 corresponding to the wild type C-terminal residue), which was used for DSF and other experiments; made in house; host or cells: E. coli RP523 (hemB mutant, unable to synthesize heme)
T1 sequence (P48775 19-406): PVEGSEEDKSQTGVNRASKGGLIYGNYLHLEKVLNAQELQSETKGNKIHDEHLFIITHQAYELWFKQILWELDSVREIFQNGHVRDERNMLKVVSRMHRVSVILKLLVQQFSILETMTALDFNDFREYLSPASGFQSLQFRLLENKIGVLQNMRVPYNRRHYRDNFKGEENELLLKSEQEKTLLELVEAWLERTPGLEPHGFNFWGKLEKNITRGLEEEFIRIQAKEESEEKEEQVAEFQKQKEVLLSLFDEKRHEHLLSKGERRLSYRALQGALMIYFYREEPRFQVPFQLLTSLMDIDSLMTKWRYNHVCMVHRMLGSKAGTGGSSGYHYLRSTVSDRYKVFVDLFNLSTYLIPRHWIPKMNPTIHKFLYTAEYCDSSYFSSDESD
Method: […] S5 online).
Protein thermal stability and small molecule ligand binding of TDO2 in vitro was studied using differential scanning fluorimetry (DSF, also known as thermal shift assay)[34]. Assay ingredients and ligands were combined to obtain a mixture composed of 10 µM TDO2 and 10x SYPRO Orange, in assay buffer (50 mM HEPES-NaOH pH 8.0, 200 mM NaCl, 2 mM TCEP, 10% glycerol) and 2% final DMSO concentration. Small molecule chemical ligands were taken from DMSO stock solution (100 mM, 10 mM) and diluted in DMSO transferred to wells of PCR Plates (Micro Amp Fast 96-well Reaction Plates, Applied Biosystems) to ensure matching final DMSO concentrations.
DSF was carried out with a StepOnePlus™ real time PCR system. Thermal denaturation of TDO2 was monitored with a ramp rate of 1 K/min. Protein melting curves were evaluated using the Thermal Shift Software v 1.3. (Thermo Fisher Scientific) to derive differences in midpoint melting-temperatures (derivative model). The thermal shift (DTm) is documented as the difference between the reference midpoint melting temperature of proteins (containing 500 µM AMT) in the presence of the ligand vehicle (DMSO) and in the presence of ligand.
Supplementary Table S2. Differential scanning fluorimetry data corresponding to supplementary figure S4. The experiments were carried out in quadruplicate, or in triplicate where single outlier values (highlighted in bold italics) were excluded from calculation of the melting curves. AMT was added at a concentration of 500 µM; […] and […] were added at a concentration of 25 µM.

[3] = biological target: T2, holo-TDO2 (Homo sapiens, UniProt P48775); assay: Heme competition by holo-TDO2 UV-VIS absorbance (Soret band); format: binding; conditions: 5 µM holo-TDO2, 20 µM inhibitor, 37 °C, up to 6 h
T2 construct: a construct encoding amino acids 19–406 of human TDO2 with an N-terminal six histidine tag; His6 (N); PreScission protease cleavage site (linker) (N); made in house; host or cells: E. coli BL21(DE3)
T2 sequence (P48775 19-406): as above
Method: To explore whether the identified apo-binders could compete with heme-binding to TDO2, a UV-visible absorption spectrum of holo-TDO2 was measured in the absence or presence of compounds. […] A shifted Soret peak can indicate a heme protein-ligand interaction, and a reduced intensity indicates loss of protein bound heme (although free heme also absorbs with a peak at approximately 400 nm, it is very poorly soluble).
Fig. 2 The UV-VIS absorption spectrum of holo-TDO2 in the presence of Cpd-1 (A) or Cpd-2 (B) or the vehicle control. […] The increase of absorbance at 280 nm of holo-TDO2 in the presence of Cpd-1 or Cpd-2 compared to the vehicle control is likely due to compound absorbance at this wavelength.
A UV − visible spectra study was performed to evaluate the binding of the compounds. The holo-TDO2 absorbance spectra were measured using a BioTek Synergy multimode reader (Agilent) for wavelengths from 250 to 600 nm in 1 nm increments. 5 µM holo-TDO2 was incubated at 37 °C with 20 µM compounds or DMSO in phosphate buffer supplemented with 0.01% Tween-20 in a 96 well UV compatible plate (Corning #3679) and absorbance was measured before (t = 0 h) and after 2–6 h of incubation.

[4] = 25 µM compound with 500 µM AMT, compared to 59.2 °C in the absence of inhibitor, read-out: increase of the melting temperature of apo-TDO2
[5] = apo-TDO2 + 25 µM compound, no AMT, shift vs apo, single replicates
[6] = apo-TDO2 + 25 µM compound, no AMT, shift vs apo, single replicates, read-out: Δ Tm Boltzmann
[7] = apo-TDO2 + 25 µM compound, no AMT, shift vs apo, single replicates, read-out: Δ Tm Derivative
[8] = apo-TDO2 + 25 µM compound, no AMT, single replicates

Row | SMILES | IC50 [1] | ΔTm at 25 µM [2, 4] | Δ Tm Boltzmann [2, 5] | Δ Tm Derivative [2, 5] | ΔTm at 25 µM [2, 6] | ΔTm at 25 µM [2, 7] | Tm Boltzmann [2, 8] | Tm Derivative [2, 8] | Soret band (405 nm) intensity of holo-TDO2 absorption spectrum [3]
1 | CCCc1ccccc1NC(=O)N(C(C)c1ccccc1)C1CCCn2c1nc(OC)c(C(=O)OCC)c2=O (stereo not drawn) [Cpd-1, ethyl 9-(3-(2-propylphenyl)-1-(1-phenylethyl)ureido)-2-methoxy-4-oxo-6,7,8,9-tetrahydro-4H-pyrido[1,2-a]pyrimidine-3-carboxylate] | > 10 µM | 11.2 °C | 11.41 and 11.37 and 11.43 | 7.28 and 6.95 and 6.97 | 10.3 °C | 6.57 °C | 59.1 and 60.21 and 60.17 and 60.23 | 55.45 and 56.16 and 55.84 and 55.85 | clear time-dependent reduction in the Soret band intensity; also recorded: reduction of the absorbance peak at 405 nm
2 | CCOC(=O)c1c(OC)nc2n(c1=O)CCCC2N(C(=O)Nc1ccccc1C(C)C)[C@@H](C)c1ccccc1 (mixture of isomers) [Cpd-2, ethyl 9-(3-(2-isopropylphenyl)-1-((S)-1-phenylethyl)ureido)-2-methoxy-4-oxo-6,7,8,9-tetrahydro-4H-pyrido[1,2-a]pyrimidine-3-carboxylate] | > 10 µM | 14.5 °C | 21.65 and 21.58 and 21.17 | 21.51 and 21.53 and 21.2 | 21.4 °C | 21.5 °C | 70.45 | 70.37 and 70.39 and 70.41 and 70.08 | clear time-dependent reduction in the Soret band intensity; also recorded: reduction of the absorbance peak at 405 nm
